Laboratory results as given in patent US20150018384A1, “TREATMENT FOR HIGH CHOLESTEROL” (FibroGen, Inc., priority 2012, published 2015).

Assays:
cynomolgus monkeys [1] = assay: Lipid panel in monkeys after single IV or PO dose; type: in vivo, cynomolgus monkey; settings: 30 mg/kg IV or PO (3 each, 6 monkeys), 24 hrs post-dose, ±SD
Protocol: The same monkeys were administered the test compounds in sequence with a washout period between administration of each compound. Monkeys were fasted overnight prior to dosing and food was withheld during the first 4 hours after dosing and food was then allowed. Blood samples were collected at baseline prior to dosing, 4, 12, 24, 48 and 72 hrs after HIF-PHI administration. […] There were a total of 6 monkeys in each dose group, 3 that were dosed PO and 3 dosed IV.

healthy human subjects = settings: 0.15 mg/kg or […] weekly for 4 weeks
Protocol: Placebo was administered in the same regimen as a control (n=2 or n=1). Fasting blood samples for cholesterol analysis were collected from subjects in the morning on the day of dosing before compound or placebo was administered.

cynomolgus monkeys [2] = assay: Cholesterol levels after repeated oral administration in monkey toxicity studies; type: in vivo, cynomolgus monkey; settings: 28-Day study, daily oral dosing 1, 10 and 30 mg/kg, day 14 and 29
Protocol: During these studies monkeys were fasted prior to each blood collection. Plasma samples were then evaluated at pre-dose and at different time-points for levels of total cholesterol.

DIO mice = assay: High cholesterol mouse model, diet induced obesity (DIO) mice
Text: Ten-week-old male apoE knockout mice (Jackson Laboratories, Bar Harbor, Me.) were fed a normal chow diet (0.02% cholesterol, 13.5% fat by weight; LabDiet). Ten-week-old male diet induced obese mice (DIO Mice, Jackson Laboratories, Bar Harbor, Me.) were fed a high fat diet (0.095% cholesterol, 60% fat by weight; ResearchDiets) starting at six-weeks-old. After 2 weeks of acclimatization, whole blood was collected for baseline measurement before administration of test reagents. All test reagents were administered orally by gavage needle three times a week for 2 weeks for the apoE mice, and three times a week for 4 weeks for the DIO mice. The animals were sacrificed at end of study. Whole blood was collected weekly in Heparin-tube by submandibular bleeding and isolated plasma was stored at −80° C. for measurement of total cholesterol.
DIO mice as described in Example 10 were used to test the effect of various compounds on cholesterol levels. Compound (60 mg/kg) or vehicle was administered to the mice (n=10/group) three times a week for four weeks. A statin compound (rosuvastatin) was also tested. Blood samples were collected at weekly and total cholesterol blood levels were tested.

[3] = tested on: Cholesterol Biosynthesis Genes in the Mouse Liver; assay: Microarray expression of cholesterol biosynthesis genes in mouse liver; type: in vivo; settings: 10 mg/kg oral
Protocol: A number of PHI compounds were evaluated for their effect on the expression of cholesterol biosynthesis genes in mouse liver. […] Liver tissue was harvested and stored in RNALater (Life Technologies). Total RNA was isolated with Trizol (Life Technologies) and purified with RNEasy96 (Qiagen) according to the manufacturers' protocols. RNA concentration was measured by NanoDrop (Thermo), and quality was assessed by Bioanalyzer (Agilent).
Biotinylated microarray probe was prepared using the 3′IVT Express kit (Affymetrix) and hybridized to mouse 430A 2.0 arrays as recommended in the manufacturer's protocol. Arrays were stained, washed, and scanned using Affymetrix equipment and software. Three arrays were run for each treatment and time point, each representing the liver sample from one individual animal.
Animals were sacrificed 4 h or 8 h later. Each compound was tested in a separate animal study with separate controls. Liver tissue was harvested and stored in RNALater (Life Technologies). Total RNA was isolated with Trizol (Life Technologies) and purified with RNEasy96 (Qiagen) according to the manufacturers' protocols. RNA concentration was measured by NanoDrop (Thermo), and quality was assessed by Bioanalyzer (Agilent).
For microarray analysis, RNA from animals in each treatment group was pooled in pairs (n=3 pairs for 4 h vehicle, n=2 pairs for all other treatment groups, for a total of 13 arrays per compound study). This approach was used to improve the signal-to-noise ratio on microarrays. Biotinylated probe was prepared using the One-Cycle cDNA synthesis kit (Affymetrix) and hybridized to mouse 430A 2.0 arrays as recommended in the manufacturer's protocol. Arrays were stained, washed, and scanned using Affymetrix equipment and software.
Array quality was assessed with GeneChip Operating System and/or Command Console software (Affymetrix). CEL files were uploaded to GeneSpring 7.3.1 (Agilent) using GC-RMA baseline correction. Principal Components Analysis was used to identify and reject outlier arrays. Data are reported as fold-change compared to timepoint-matched vehicle controls from the same study. Values less than 1.0 indicate a reduction of RNA in the treated animal liver tissue.

ApoE deficient mice = assay: High cholesterol mouse model, ApoE deficient mice, 2 weeks; type: in vivo; settings: Compound 60 mg/kg three times a week for two weeks, n=10/group, FIG. 22
Text: Ten-week-old male apoE knockout mice (Jackson Laboratories, Bar Harbor, Me.) were fed a normal chow diet (0.02% cholesterol, 13.5% fat by weight; LabDiet). […] After 2 weeks of acclimatization, whole blood was collected for baseline measurement before administration of test reagents. […] The animals were sacrificed at end of study.
ApoE deficient mice as described in Example 10 were used to test the effect of various compounds on cholesterol levels. […] A statin compound (rosuvastatin) was also tested. Blood samples were collected at the end of the study and total cholesterol blood levels were tested. A group of 10 mice was sacrificed at the beginning of the study for a baseline total cholesterol measurement. […] Typically statins show mixed results in this model and are not very effective to reduce cholesterol in mice (Bea et al. 2003 Atherosclerosis 167:187-194).

N#Cc1nc(C(=O)NCC(=O)O)c(O)c2c(Oc3ccc(Cl)cc3)cccc12 [Compound C]
Cholesterol change from baseline (cynomolgus monkeys [1]): -11.8 ± 4.9 mg/dL | HDL change from baseline (cynomolgus monkeys [1]): 0.5 ± 6.9 mg/dL | TGs change from baseline (cynomolgus monkeys [1]): -10 ± 21 mg/dL | total cholesterol levels over the course of treatment (healthy human subjects): decreased | total cholesterol levels (cynomolgus monkeys [2]): dose-dependent decrease in cholesterol levels | total cholesterol levels (cynomolgus monkeys [2]; listed as compound C): dose dependent decrease in total cholesterol

N#Cc1nc(C(=O)NCC(=O)O)c(O)c2ccn(Cc3ccccc3F)c12 [Compound G, {[7-Cyano-1-(2-fluoro-benzyl)-4-hydroxy-1H-pyrrolo[2,3-c]pyridine-5-carbonyl]-amino}-acetic acid]
body weights at the end of the study (DIO mice; 60 mg/kg three times a week for four weeks): lower body weights | Cholesterol change from baseline (cynomolgus monkeys [1]): -6.5 ± 10.4 mg/dL | HDL change from baseline (cynomolgus monkeys [1]): 0.17 ± 5.4 mg/dL | LDL change from baseline (cynomolgus monkeys [1]): -8.7 ± 5.9 mg/dL | LDL/HDL ratio change from baseline (cynomolgus monkeys [1]): −0.13 ± 0.08 | TGs change from baseline (cynomolgus monkeys [1]): -23 ± 8 mg/dL | 3-hydroxy-3-methylglutaryl-Coenzyme A reductase (Hmgcr) RNA expression ([3]; 4 h): 0.68 fold-change | 3-hydroxy-3-methylglutaryl-Coenzyme A synthase 1 (Hmgcs1) RNA expression ([3]; 4 h): 1.29 fold-change | 7-dehydrocholesterol reductase (Dhcr7) RNA expression ([3]; 4 h): 0.91 fold-change | NAD(P) dependent steroid dehydrogenase-like (Nsdhl) RNA expression ([3]; 4 h): 1.46 fold-change | acetyl-Coenzyme A acetyltransferase 2 (Acat2) RNA expression ([3]; 4 h): 1.18 fold-change | cytochrome P450, family 51 (Cyp51) RNA expression ([3]; 4 h): 1.00 fold-change | farnesyl diphosphate farnesyl transferase 1 (Fdft1) RNA expression ([3]; 4 h): 1.15 fold-change | farnesyl diphosphate synthetase (Fdps) RNA expression ([3]; 4 h): 1.16 fold-change | isopentenyl-diphosphate delta isomerase (Idi1) RNA expression ([3]; 4 h): 1.13 fold-change | lanosterol synthase (Lss) RNA expression ([3]; 4 h): 1.22 fold-change | mevalonate (diphospho) decarboxylase (Mvd) RNA expression ([3]; 4 h): 1.03 fold-change | mevalonate kinase (Mvk) RNA expression ([3]; 4 h): 0.98 fold-change | phosphomevalonate kinase (Pmvk) RNA expression ([3]; 4 h): 0.95 fold-change | squalene epoxidase (Sqle) RNA expression ([3]; 4 h): 1.50 fold-change | sterol-C4-methyl oxidase-like (Sc4mol) RNA expression ([3]; 4 h): 0.87 fold-change | sterol-C5-desaturase (fungal ERG3, delta-5-desaturase) homolog (S. cerevisae) (Sc5d) RNA expression ([3]; 4 h): 0.70 fold-change | 3-hydroxy-3-methylglutaryl-Coenzyme A reductase (Hmgcr) RNA expression ([3]; 8 h): 0.66 fold-change | 3-hydroxy-3-methylglutaryl-Coenzyme A synthase 1 (Hmgcs1) RNA expression ([3]; 8 h): 0.82 fold-change | 7-dehydrocholesterol reductase (Dhcr7) RNA expression ([3]; 8 h): 1.07 fold-change | NAD(P) dependent steroid dehydrogenase-like (Nsdhl) RNA expression ([3]; 8 h): 1.00 fold-change | acetyl-Coenzyme A acetyltransferase 2 (Acat2) RNA expression ([3]; 8 h): 0.67 fold-change | cytochrome P450, family 51 (Cyp51) RNA expression ([3]; 8 h): 0.62 fold-change | farnesyl diphosphate farnesyl transferase 1 (Fdft1) RNA expression ([3]; 8 h): 0.98 fold-change | farnesyl diphosphate synthetase (Fdps) RNA expression ([3]; 8 h): 0.73 fold-change | isopentenyl-diphosphate delta isomerase (Idi1) RNA expression ([3]; 8 h): 0.94 fold-change | lanosterol synthase (Lss) RNA expression ([3]; 8 h): 0.87 fold-change | mevalonate (diphospho) decarboxylase (Mvd) RNA expression ([3]; 8 h): 1.03 fold-change | mevalonate kinase (Mvk) RNA expression ([3]; 8 h): 0.89 fold-change | phosphomevalonate kinase (Pmvk) RNA expression ([3]; 8 h): 0.70 fold-change | squalene epoxidase (Sqle) RNA expression ([3]; 8 h): 1.22 fold-change | sterol-C4-methyl oxidase-like (Sc4mol) RNA expression ([3]; 8 h): 0.58 fold-change | sterol-C5-desaturase (fungal ERG3, delta-5-desaturase) homolog (S. cerevisae) (Sc5d) RNA expression ([3]; 8 h): 0.48 fold-change

CC(C)c1nc(N(C)S(C)(=O)=O)nc(-c2ccc(F)cc2)c1/C=C/[C@@H](O)C[C@@H](O)CC(=O)O [rosuvastatin, reference compound]
total cholesterol levels at the end of the study compared to baseline (ApoE deficient mice): did not show a reduction in cholesterol | percent change from baseline in total cholesterol at two weeks compared to vehicle treated (DIO mice; Compound 60 mg/kg three times a week, n=10/group, FIG. 23): lower total cholesterol levels
